# System: ob/ob mice
# Assay: Oral glucose tolerance test (OGTT) in ob/ob mice
# Assay type: in vivo
# Details: bi-daily 50 mg/kg during 28 days, AUC from -15 to 120 min
# Protocol: Ob/ob or obese mice are leptin-deficient mice that eat excessively and become profoundly obese, hyperinsulinemic and hyperglycemic. It is an animal model of type II diabetes. Such model can be used for oral glucose tolerance tests (OGTTs). A total of sixteen (16) male ob/ob mice (6 weeks of age) were obtained from Harlan. Upon arrival to the animal unit, mice were housed 4 per cage in rodent cages mounted with feeders containing regular chow. The mice were put in a 12/12 h light-dark cycle (light from 0600-1800 h) with controlled temperature conditions (22-24° C.). Fed blood glucose and body-weight was measured on day −2 in the morning between 08:00 AM and 09:00 AM. Animals were randomized into 2 groups according to fed glucose levels (on day −2). […]
# Day 1 is the first day of dosing. […] At −15 min, blood glucose was measured (using a glucose analyzer) and animals were dosed with compounds of the invention or vehicle. At time point 0, blood glucose was measured again and glucose was administered by oral gavage (1 g/kg glucose). The blood glucose was then measured at time points 15, 30, 45, 60 and 120 minutes. […] The percentages of AUC inhibition induced by compounds of the invention were calculated as follows: % of AUC inhibition: [1−(AUC compound/AUC vehicule)]*100.
compound,measurement,value
"COc1ccccc1-c1ccc(C(=O)N2[C@@H](c3ccccc3Cl)CC[C@H]2C(=O)O)cc1 [Compound 1, (2S,5R)-5-(2-chlorophenyl)-1-(2′-methoxy-[1,1′-biphenyl]-4-carbonyl)pyrrolidine-2-carboxylic acid]","% of AUC inhibition (blood glucose, OGTT)",40%

# — patent publication US10017468B2, “Substituted pyrrolidines as G-protein coupled receptor 43 agonists” (Ogeda SA, priority 2009, dated 2018)
